# Test results taken from patent publication US8992886B2, “Cyclic peptide analogues for non-invasive imaging of pancreatic beta-cells” (Board of Regents, the University of Texas System, priority 2009, dated 2015).
# Ends that are not written are not given here.
# Tests used:
# [1] = tested on: freshly isolated rat islets; experiment: Displacement binding assay of ^125I-labeled peptide on isolated islets; conditions: ^125I-labeled (at Tyr^19)
# Text: (§1) This presumably resulted from the degradation of the peptide by DPP-IV since it has Ala at position 8. In order to overcome this problem, we have replaced the L-Ala with a D-Ala. Furthermore, due to high stomach uptake likely resulting from in vivo de-iodination of the ^125I-labeled peptide, a conventional metal chelator. […] The purified conjugates were labeled with either ^64Cu or ^111In in high radiochemical yields.
# [2] = Tissue distribution of ^125I-labeled peptide in normal Sprague-Dawley rats; format: in vivo
# Text: as §1
# GLP-1R [3] = molecular target: T1, GLP-1R (Homo sapiens, UniProt P43220); experiment: cAMP formation by radioimmunoassay in transfected HEK293 cells; format: cell-based; parameters: expressed in transfected cells; host or cells: HEK293; conditions: compared with GLP-1
# Protocol: Twelve cyclic GLP-1 analogues containing lactam bridges in various regions (from the N- to C-terminal regions) were designed and synthesized. The cyclic peptides were prepared by following standard solid-phase peptide synthesis protocol with N-Fmoc/^tBu protecting group strategy. The side chains of a lysine and a glutamic acid that would form a lactam bridge were protected with allyl groups which were selectively removed by using Pd^0 catalyst and an allyl scavenger like N,N-dimethylbarbituric acid (29). The released free amine and carboxylic acid were coupled on resin using HBTU or BOP to form a cyclic peptide. […] In addition, cAMP formation by the peptides was determined by radioimmunoassay using the transfected HEK293 cells to examine agonistic activity. […] (SEQ ID No: 5) and […] R (SEQ ID No: 6).
# Target sequence in this assay (P43220 24-463): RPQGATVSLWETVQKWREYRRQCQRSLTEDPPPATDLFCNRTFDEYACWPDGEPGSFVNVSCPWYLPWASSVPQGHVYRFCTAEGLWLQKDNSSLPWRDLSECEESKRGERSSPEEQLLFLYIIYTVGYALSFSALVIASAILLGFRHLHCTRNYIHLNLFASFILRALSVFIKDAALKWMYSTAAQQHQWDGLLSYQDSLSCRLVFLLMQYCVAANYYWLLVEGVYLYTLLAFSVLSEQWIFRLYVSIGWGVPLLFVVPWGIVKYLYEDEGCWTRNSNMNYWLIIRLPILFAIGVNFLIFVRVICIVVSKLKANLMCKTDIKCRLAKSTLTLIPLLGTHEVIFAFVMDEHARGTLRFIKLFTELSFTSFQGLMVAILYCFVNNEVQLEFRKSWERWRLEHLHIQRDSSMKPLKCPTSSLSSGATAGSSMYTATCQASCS
# GLP-1R [4] = molecular target: T1, GLP-1R; conditions: DPP-IV degradation fragment; cited from earlier work
# Target sequence in this assay (P43220 24-463, species assumed): as the sequence (P43220 24-463) above
# GLP-1R in pancreas = molecular target: T2, GLP-1R in pancreas (Mus musculus, UniProt O35659); experiment: Dynamic PET/CT imaging of ^64Cu-labeled peptides in normal mice; conditions: ^64Cu labeled, normal mice, dynamic PET-CT
# T2 sequence (O35659 22-463): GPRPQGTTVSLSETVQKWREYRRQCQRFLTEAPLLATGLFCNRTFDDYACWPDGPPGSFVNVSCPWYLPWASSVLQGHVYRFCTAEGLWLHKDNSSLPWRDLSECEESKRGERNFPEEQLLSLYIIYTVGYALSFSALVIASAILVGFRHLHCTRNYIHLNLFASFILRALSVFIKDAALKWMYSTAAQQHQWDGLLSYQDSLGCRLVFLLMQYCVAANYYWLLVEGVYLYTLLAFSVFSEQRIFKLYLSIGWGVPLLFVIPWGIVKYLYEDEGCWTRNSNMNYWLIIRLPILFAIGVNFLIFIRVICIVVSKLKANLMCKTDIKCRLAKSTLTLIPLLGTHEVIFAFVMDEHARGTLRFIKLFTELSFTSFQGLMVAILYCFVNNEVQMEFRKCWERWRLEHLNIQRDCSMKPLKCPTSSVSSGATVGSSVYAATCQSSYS
# Protocol: Dynamic PET/CT scans were performed on a Siemens Inveon PET-CT multimodality system using normal male BABL/c mice (n=3 per peptide). Post-PET biodistribution was performed to verify the imaging findings.
# In addition, D-Ala^8 was also introduced to prevent the degradation by DPP-IV.
# FIG. 9 are graphs that show a comparison of contrast in pancreatic, liver and kidney microPET scans. […] Quantitative analysis based on microPET/CT 0-60 min dynamic scans, animal model: Normal BABL/c mice at 6-8 wks.
# GLP-1R [5] = molecular target: T1, GLP-1R; experiment: cAMP accumulation in HEK293 cells stably expressing GLP-1R-GFP; format: cell-based; parameters: GFP; expressed in transfected cells; host or cells: HEK293
# Text: In all cases, reactions were stopped with 1.2 M trichloroacetic acid and cAMP was isolated by the two column chromatographic method.
# Target sequence in this assay (P43220 24-463): as the sequence (P43220 24-463) above
molecule,measurement,setting,value
"HAEGTFTSDESSYKEGQAAKEFIAWLVKGR (lactam (positions not given here); ends not checked; also: lactam bridge, positions not given here) [SEQ ID No: 5, cyclic GLP-1 analogue with a lactam bridge]",specific binding to isolated islets,[1],appreciable specific binding
same,accumulation in kidneys and stomach,[2],high accumulation in kidneys and stomach
same,pancreas uptake,[2],no significant pancreas uptake
same,receptor activation (cAMP formation),GLP-1R [3],comparable or improved
"HAEGTFTSDVSSYLEGQAAKEFIEWLVKG R (chain 1 HAEGTFTSDVSSYLEGQAAKEFIEWLVKGR; chain 2 HAEGTFTSDVSSYLEGQAAKEFIEWLVKGR; lactam (positions not given here); ends not checked; also: lactam bridge, positions not given here) [SEQ ID No: 6, cyclic GLP-1 analogue with a lactam bridge]",receptor activation (cAMP formation),GLP-1R [3],comparable or improved
GLP-1(9-36) amide,receptor affinity and biological activity,GLP-1R [4],lost receptor affinity and biological activity nearly completely
"CC[C@H](C)[C@H](NC(=O)[C@H](Cc1ccccc1)NC(=O)[C@H](CCC(=O)O)NC(=O)[C@H](CCCCN)NC(=O)[C@H](C)NC(=O)[C@H](C)NC(=O)[C@H](CCC(N)=O)NC(=O)[C@@H]1CCCCNC(=O)CC[C@H](NC(=O)[C@H](CO)NC(=O)[C@@H](NC(=O)[C@H](CC(=O)O)NC(=O)[C@H](CO)NC(=O)[C@@H](NC(=O)[C@H](Cc2ccccc2)NC(=O)[C@@H](NC(=O)CNC(=O)[C@H](CCC(=O)O)NC(=O)[C@@H](C)NC(=O)[C@@H](N)Cc2c[nH]cn2)[C@@H](C)O)[C@@H](C)O)C(C)C)C(=O)N[C@@H](Cc2ccc(O)cc2)C(=O)N[C@@H](CC(C)C)C(=O)N[C@@H](CCC(=O)O)C(=O)N1)C(=O)N[C@H]1CCC(=O)NCCCC[C@@H](C(=O)NCC(=O)N[C@@H](CCCNC(=N)N)C(=O)NCCCCCC(=O)N[C@@H](CSC2CC(=O)N(CCNC(=O)CN3CCN(CC(=O)O)CCN(CC(=O)O)CCN(CC(=O)O)CC3)C2=O)C(N)=O)NC(=O)[C@H](C(C)C)NC(=O)[C@H](CC(C)C)NC(=O)[C@H](Cc2c[nH]c3ccccc23)NC1=O (stereo partly drawn) [EM2198, HXEGTFTSDVSEYLEKQAAKEFIEWLVKGR, wherein X is D-Ala]",pancreatic retention,GLP-1R in pancreas,> 30 min
same,EC50,GLP-1R [5],~1 nM
